Measurements taken from PubChem BioAssay (NCI).
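Where inhibition never reached the appropriate level, the endpoint shown equals the highest concentration tested. Otherwise, values were interpolated linearly from a five-concentration, 48-hour dose response in 96-well plates. GI50: concentration for 50% inhibition of growth. Definition used: TGI = concentration required for complete inhibition of growth.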

What was measured:
Assay in all cases: NCI anticancer screen, dose series, 48 h
[1] = tested on: 786-0 renal
[2] = tested on: A498 renal
[3] = tested on: ACHN renal
[4] = tested on: CAKI-1 renal
[5] = tested on: CCRF-CEM leukemia
[6] = tested on: COLO 205 colon
[7] = tested on: DU-145 prostate
[8] = tested on: EKVX NSCLC
[9] = tested on: HCC-2998 colon
[10] = tested on: HCT-116 colon
[11] = tested on: HCT-15 colon
[12] = tested on: HL-60(TB) leukemia
[13] = tested on: HOP-62 NSCLC
[14] = tested on: HOP-92 NSCLC
[15] = tested on: HS 578T breast
[16] = tested on: HT29 colon
[17] = tested on: IGROV1 ovarian
[18] = tested on: KM12 colon
[19] = tested on: M14 melanoma
[20] = tested on: MCF7 breast
[21] = tested on: MDA-MB-231 breast
[22] = tested on: MDA-MB-435
[23] = tested on: MDA-N
[24] = tested on: MOLT-4 leukemia
[25] = tested on: NCI-H226 lung
[26] = tested on: NCI-H23 lung
[27] = tested on: NCI-H460 lung
[28] = tested on: NCI-H522 lung
[29] = tested on: NCI/ADR-RES ovarian
[30] = tested on: OVCAR-3 ovarian
[31] = tested on: OVCAR-4 ovarian
[32] = tested on: OVCAR-5 ovarian
[33] = tested on: OVCAR-8 ovarian
[34] = tested on: RPMI-8226 leukemia
[35] = tested on: RXF 393 renal
[36] = tested on: SF-268 CNS
[37] = tested on: SF-295 CNS
[38] = tested on: SF-539 CNS
[39] = tested on: SK-MEL-5 melanoma
[40] = tested on: SK-OV-3 ovarian
[41] = tested on: SN12C renal
[42] = tested on: SNB-75 CNS
[43] = tested on: SR leukemia
[44] = tested on: SW-620 colon
[45] = tested on: T-47D breast
[46] = tested on: TK-10 renal
[47] = tested on: U251 CNS
[48] = tested on: UACC-257 melanoma
[49] = tested on: UACC-62 melanoma
[50] = tested on: UO-31 renal
[51] = tested on: A549 NSCLC
[52] = tested on: BT-549 breast
[53] = tested on: K-562 leukemia
[54] = tested on: LOX IMVI melanoma
[55] = tested on: MALME-3M melanoma
[56] = tested on: PC-3 prostate
[57] = tested on: SK-MEL-2 melanoma
[58] = tested on: SK-MEL-28 melanoma
[59] = tested on: SNB-19 CNS

For `CCCCc1ccc(C#CC#Cc2ccc(CCCC)s2)s1`, the TGI [1] was greater than 100 µM, the TGI [2] was greater than 100 µM and the TGI [3] was greater than 100 µM. For the same compound, the TGI [4] was greater than 100 µM, the TGI [5] was greater than 100 µM and the TGI [6] was greater than 100 µM. The TGI [7] was greater than 100 µM, the TGI [8] was greater than 100 µM and the TGI [9] was greater than 100 µM. For the same compound, the TGI [10] was greater than 100 µM, the TGI [11] was greater than 100 µM and the TGI [12] was greater than 100 µM. For the same compound, the TGI [13] was greater than 100 µM, the TGI [14] was greater than 100 µM and the TGI [15] was greater than 100 µM. For the same compound, the TGI [16] was greater than 100 µM, the TGI [17] was greater than 100 µM and the TGI [18] was greater than 100 µM. The TGI [19] was greater than 100 µM, the TGI [20] was greater than 100 µM and the TGI [21] was greater than 100 µM. It also gave a TGI [22] greater than 100 µM, a TGI [23] greater than 100 µM and a TGI [24] greater than 100 µM. For the same compound, the TGI [25] was greater than 100 µM, the TGI [26] was greater than 100 µM and the TGI [27] was greater than 100 µM. It also gave a TGI [28] greater than 100 µM, a TGI [29] greater than 100 µM and a TGI [30] greater than 100 µM. For the same compound, the TGI [31] was greater than 100 µM, the TGI [32] was greater than 100 µM and the TGI [33] was greater than 100 µM. It also gave a TGI [34] greater than 100 µM, a TGI [35] greater than 100 µM and a TGI [36] greater than 100 µM. For the same compound, the TGI [37] was greater than 100 µM, the TGI [38] was greater than 100 µM and the TGI [39] was greater than 100 µM. For the same compound, the TGI [40] was greater than 100 µM, the TGI [41] was greater than 100 µM and the TGI [42] was greater than 100 µM. It also gave a TGI [43] greater than 100 µM, a TGI [44] greater than 100 µM and a TGI [45] greater than 100 µM. It also gave a TGI [46] greater than 100 µM, a TGI [47] greater than 100 µM and a TGI [48] greater than 100 µM. For the same compound, the TGI [49] was greater than 100 µM and the TGI [50] was greater than 100 µM.

`CN1CCN(Cc2ccc(NC(=O)c3cncc(C#Cc4cnc(N)c5cnccc45)c3)cc2C(F)(F)F)CC1` was tested, and the GI50 [1] was 0.314 µM, the TGI [1] was 7.73 µM and the GI50 [2] was 0.12 µM. It also gave a TGI [2] of 0.363 µM, a GI50 [51] of 0.511 µM and a TGI [51] of 7.79 µM. It also gave a GI50 [3] of 0.201 µM, a TGI [3] of 1.43 µM and a GI50 [52] of 1.08 µM. For the same compound, the TGI [52] was 7.23 µM, the GI50 [4] was 0.979 µM and the TGI [4] was 6.61 µM. For the same compound, the GI50 [5] was 0.335 µM, the TGI [5] was 8.71 µM and the GI50 [6] was 0.0982 µM. For the same compound, the TGI [6] was 6 µM, the GI50 [7] was 0.214 µM and the TGI [7] was 6.21 µM. The GI50 [8] was 0.485 µM, the TGI [8] was 4.4 µM and the GI50 [9] was 0.234 µM. It also gave a TGI [9] of 7.12 µM, a GI50 [10] of 0.142 µM and a TGI [10] of 1.74 µM. For the same compound, the GI50 [11] was 0.721 µM, the TGI [11] was 6.31 µM and the GI50 [12] was 0.0926 µM. The TGI [12] was 0.585 µM, the GI50 [13] was 0.233 µM and the TGI [13] was 4.32 µM. It also gave a GI50 [14] of 0.0725 µM, a TGI [14] of 0.287 µM and a GI50 [15] of 0.122 µM. The TGI [15] was 0.7 µM, the GI50 [16] was 0.115 µM and the TGI [16] was 6.1 µM. For the same compound, the GI50 [17] was 0.141 µM, the TGI [17] was 0.649 µM and the GI50 [53] was 0.005 µM. It also gave a TGI [53] of 0.732 µM, a GI50 [18] of 0.0169 µM and a TGI [18] of 5.53 µM. The GI50 [54] was 0.0745 µM, the TGI [54] was 0.26 µM and the GI50 [19] was 0.0727 µM. It also gave a TGI [19] of 0.281 µM, a GI50 [55] of 0.036 µM and a TGI [55] of 0.176 µM. It also gave a GI50 [20] of 0.921 µM, a TGI [20] of 8.75 µM and a GI50 [21] of 0.0722 µM. The TGI [21] was 0.223 µM, the GI50 [22] was 0.115 µM and the TGI [22] was 1.65 µM. For the same compound, the GI50 [24] was 0.172 µM, the TGI [24] was 7.49 µM and the GI50 [25] was 0.115 µM. The TGI [25] was 4.54 µM, the GI50 [26] was 0.189 µM and the TGI [26] was 3.81 µM. The GI50 [27] was 0.218 µM, the TGI [27] was 3.31 µM and the GI50 [28] was 0.226 µM. It also gave a TGI [28] of 9.45 µM, a GI50 [29] of 6.02 µM and a TGI [29] of 15.9 µM. The GI50 [30] was 0.337 µM, the TGI [30] was 8.43 µM and the GI50 [31] was 0.129 µM. It also gave a TGI [31] of 7.52 µM, a GI50 [32] of 0.162 µM and a TGI [32] of 4.39 µM. It also gave a GI50 [33] of 0.253 µM, a TGI [33] of 8.09 µM and a GI50 [56] of 0.284 µM. The TGI [56] was 8.97 µM, the GI50 [34] was 0.216 µM and the TGI [34] was 3.25 µM. The GI50 [35] was 0.147 µM, the TGI [35] was 0.565 µM and the GI50 [36] was 0.234 µM. The TGI [36] was 6.93 µM, the GI50 [37] was 0.799 µM and the TGI [37] was 7.07 µM. The GI50 [38] was 0.157 µM, the TGI [38] was 0.628 µM and the GI50 [57] was 0.108 µM. It also gave a TGI [57] of 0.283 µM, a GI50 [58] of 0.0937 µM and a TGI [58] of 0.394 µM. For the same compound, the GI50 [39] was 0.277 µM, the TGI [39] was 0.952 µM and the GI50 [40] was 0.181 µM. For the same compound, the TGI [40] was 6.21 µM, the GI50 [41] was 0.167 µM and the TGI [41] was 5.86 µM. The GI50 [59] was 1.76 µM, the TGI [59] was 10.9 µM and the GI50 [42] was 0.233 µM. For the same compound, the TGI [42] was 1.71 µM, the GI50 [43] was 0.229 µM and the TGI [43] was 2.97 µM. It also gave a GI50 [44] of 0.182 µM, a TGI [44] of 2.62 µM and a GI50 [45] of 0.41 µM. It also gave a TGI [45] of 9.13 µM, a GI50 [46] of 0.436 µM and a TGI [46] of 6.73 µM. The GI50 [47] was 0.209 µM, the TGI [47] was 7.62 µM and the GI50 [48] was 0.161 µM. The TGI [48] was 1.45 µM, the GI50 [49] was 0.0782 µM and the TGI [49] was 0.282 µM. It also gave a GI50 [50] of 0.42 µM and a TGI [50] of 1.31 µM.

`CC(=O)Nc1ccc(Sc2nnc(NC(C)=O)s2)cc1` showed a TGI [51] greater than 100 µM, a TGI [3] greater than 100 µM and a TGI [5] greater than 100 µM. It also gave a TGI [6] greater than 100 µM, a TGI [8] greater than 100 µM and a TGI [9] greater than 100 µM. The TGI [10] was greater than 100 µM, the TGI [11] was greater than 100 µM and the TGI [12] was greater than 100 µM. For the same compound, the TGI [13] was greater than 100 µM, the TGI [15] was greater than 100 µM and the TGI [17] was greater than 100 µM. For the same compound, the TGI [53] was greater than 100 µM, the TGI [18] was greater than 100 µM and the TGI [19] was greater than 100 µM. It also gave a TGI [20] greater than 100 µM, a TGI [21] greater than 100 µM and a TGI [22] greater than 100 µM. It also gave a TGI [23] greater than 100 µM, a TGI [24] greater than 100 µM and a TGI [27] greater than 100 µM. For the same compound, the TGI [28] was greater than 100 µM, the TGI [29] was greater than 100 µM and the TGI [31] was greater than 100 µM. The TGI [32] was greater than 100 µM, the TGI [33] was greater than 100 µM and the TGI [56] was greater than 100 µM. The TGI [34] was greater than 100 µM, the TGI [36] was greater than 100 µM and the TGI [37] was greater than 100 µM. It also gave a TGI [38] greater than 100 µM, a TGI [58] greater than 100 µM and a TGI [39] greater than 100 µM. It also gave a TGI [40] greater than 100 µM, a TGI [41] greater than 100 µM and a TGI [59] greater than 100 µM. It also gave a TGI [42] greater than 100 µM, a TGI [43] greater than 100 µM and a TGI [44] greater than 100 µM. For the same compound, the TGI [45] was greater than 100 µM, the TGI [46] was greater than 100 µM and the TGI [47] was greater than 100 µM. It also gave a TGI [48] greater than 100 µM and a TGI [50] greater than 100 µM.
